Results: article PMC7928264 (Journal of pharmacy & pharmaceutical sciences : a …, 2014)
Where a name gives a salt, the structure may show the parent alone. Read-outs that look alike come from different tables or passages of the source.

Columns and labels:
OCTs = details: for Inhibition of tacrine uptake vs untreated control: 30 min pre-incubation, 1 μM tacrine 5 min, SCHs day 1
OATPs = OATPs inhibition study with rifampicin on tacrine cellular accumulation; format: in vitro ADME, rat; details: data not shown
[1] = system: sandwich-cultured primary rat hepatocytes (SCHs); details: 5 min, 1 μM
[2] = system: sandwich-cultured primary rat hepatocytes (SCHs)
[3] = human, in vivo; cited from earlier work
[4] = system: sandwich-cultured primary rat hepatocytes (SCHs); details: 1 μM
hepatic transaminase = details: human, in vivo; cited from earlier work
P-gp = details: 5 μM valspodar, 1 μM tacrine, 10 min, SCHs day 4

CC[N+](CC)(CC)CC [TEA, tetraethylammonium chloride]
Inhibition of tacrine uptake vs untreated control (OCTs; inhibitor 300 μM): ~ 18%

CN/C(=N/CCSCc1nc[nH]c1C)NC#N [cimetidine]
Inhibition of tacrine uptake vs untreated control (OCTs; inhibitor 300 μM): > 50%

COCCCC/C(=N\OCCN)c1ccc(C(F)(F)F)cc1 [fluvoxamine, Fluvoxamine maleate]
Inhibition of tacrine uptake vs untreated control (OCTs; inhibitor 50 μM): > 50%

CO[C@H]1/C=C/O[C@@]2(C)Oc3c(C)c(O)c4c(O)c(c(/C=N/N5CCN(C)CC5)c(O)c4c3C2=O)NC(=O)/C(C)=C\C=C\[C@H](C)[C@H](O)[C@@H](C)[C@@H](O)[C@@H](C)[C@H](OC(C)=O)[C@@H]1C [rifampicin]
Effect on tacrine cellular accumulation (OATPs): did not alter tacrine cellular accumulation

Nc1c2c(nc3ccccc13)CCCC2 [tacrine, 9-amino-1,2,3,4-tetrahydroacridine]
Average uptake ([1]; pH 6.4): 68±4 pmol/min/mg protein | Decrease in uptake compared to neutral pH (7.4) ([1]; pH 6.4): approximately 3 fold | Average uptake ([1]; pH 7.4): 405±16 pmol/min/mg protein | Average uptake ([1]; pH 8.4): 816±62 pmol/min/mg protein | Increase in uptake compared to neutral pH (7.4) ([1]; pH 8.6): ~2 fold | Time at which uptake reaches a plateau ([2]; 1 μM tacrine, SCHs day 1): 10 min | Uptake Vmax ([2]; SCHs, day 1, saturable uptake (37°C minus 4°C), tacrine 0.1–500 μM): 908±72 pmol/min/mg protein | Oral bioavailability [3]: 17–24% | Time of maximum biliary excretion [4]: 10 min | BEI% ([4]; 10 min): 22.9±1.9% | Patients with significantly elevated hepatic transaminase concentrations (hepatic transaminase): 25%

C/C=C/C[C@@H](C)C(=O)[C@H]1C(=O)N[C@@H](C(C)C)C(=O)N(C)CC(=O)N(C)[C@@H](CC(C)C)C(=O)N[C@@H](C(C)C)C(=O)N(C)[C@@H](CC(C)C)C(=O)N[C@@H](C)C(=O)N[C@H](C)C(=O)N(C)[C@@H](CC(C)C)C(=O)N(C)[C@@H](CC(C)C)C(=O)N(C)[C@@H](C(C)C)C(=O)N1C [valspodar]
Reduction of tacrine BEI% (P-gp): approximately 60%

COc1ccc(CCN(C)CCCC(C#N)(c2ccc(OC)c(OC)c2)C(C)C)cc1OC (stereo not shown) [verapamil, verapamil hydrochloride]
Inhibition of tacrine uptake vs untreated control (OCTs; inhibitor 50 μM): > 50% | Concentration giving maximal inhibition of tacrine uptake (OCTs; verapamil tested at 10, 50 and 100 μM, concentration-dependent, P<0.001): 100 µM | Reduction in tacrine uptake (OCTs; verapamil, concentration not given, SCHs): 3 fold
